We go through three molecules from patent US20140086938A1, “METHODS OF INHIBITING TUMOR GROWTH USING TTK ANTAGONISTS” (University Health Network, priority 2007, published 2014).

One data set relates to BT474. The data set is described as follows: SRB cell viability after siRNA transfection. In kind it is cell-based, human. The following applies: 40 nM siRNA, day 5 post-transfection, normalized over siCONTROL. How it is done:
(§1) Different normal breast and breast cancer cell lines were used for siRNA transfection. Cells were seeded at various concentrations, ranging from 1500 to 6000 per well according to cell growth rate, into 96 well plates. 40 nM individual siRNAs or 40 nM siRNA pool including four individual siRNAs at 10 nM each were transfected into cells using Lipofectamine-2000 24 hrs after cell seeding. Cells were then incubated at 37° C. for five days before cell viability assay were conducted.
(§2) SRB assay was performed to assess cell survival. SRB is a water-soluble dye that binds to the basic amino acids of the cellular proteins. Thus, colorimetric measurement of the bound dye provides an estimate of the total protein mass and is related to the cell number. The cells were fixed in situ by gently aspirating off the culture media and adding 50 μl ice cold 10% Tri-chloroacetic Acid (TCA) per well and incubate at 4° C. for 30-60 min. The plates were washed with tap water five times and allowed to air dry for 5 min. 50 μl of 0.4% (w/v) Sulforhodamine B solution in 1% (v/v) acetic acid was added per well and incubated for 30 min at RT for staining. Following staining, plates were washed four times with 1% acetic acid to remove any unbound dye and then allowed to air dry for 5 min. The stain was solubilized with 100 μl of 10 mM Tris pH 10.5 per well. Absorbance was read at 570 mn. The cell survival percentage after each siRNA(s) knock down was calculated over the non-silencing control siCTRL or siPOOL as well as siTOX as a transfection efficiency control.
(§3) To assess the effects of TTK knockdown on the viability of breast cancer cells, various breast cancer cell lines were transfected with each of the four TTK-targeting siRNAs individually, the pooled siRNA containing all four of the TTK-targeting siRNAs, or the siCONTROL siRNA, all at a concentration of 40 nM. At day 5 post-transfection, the viability of the cells was determined using the SRB assay described herein.

The subject of another data set is CAMA-1. As to the kind of experiment: SRB cell viability after siRNA transfection. As to conditions: 40 nM siRNA, day 5 post-transfection, normalized over siCONTROL. The class given is cell-based, human. As to the method:
as §1, §2, §3

The next data set relates to HCC1419. As to the kind of experiment: SRB cell viability after siRNA transfection. The class given is cell-based, human. As to conditions: 40 nM siRNA, day 5 post-transfection, normalized over siCONTROL. How it is done:
as §1, §2, §3

The test system of a further data set is Hs578T. The data set is described as follows: SRB cell viability after siRNA transfection. The class given is cell-based, human. As to conditions: 40 nM siRNA, day 5 post-transfection, normalized over siCONTROL. How it is done: as §1, §2, §3
The test system of another data set is MCF-7. The data set is described as follows: SRB cell viability after siRNA transfection. In kind it is cell-based, human. The following applies: 40 nM siRNA, day 5 post-transfection, normalized over siCONTROL. As to the method: as §1, §2, §3
The next data set has as its system MDA-MB-231. As to the kind of experiment: SRB cell viability after siRNA transfection. In kind it is cell-based, human. The following applies: 40 nM siRNA, day 5 post-transfection, normalized over siCONTROL. How it is done:
as §1, §2, §3

For a further data set, the system named is MDA-MB-330. As to the kind of experiment: SRB cell viability after siRNA transfection. The following applies: 40 nM siRNA, day 5 post-transfection, normalized over siCONTROL. In kind it is cell-based, human. As to the method: as §1, §2, §3
For another data set, the system named is MDA-MB-435. The data set is described as follows: SRB cell viability after siRNA transfection. The class given is cell-based, human. As to conditions: 40 nM siRNA, day 5 post-transfection, normalized over siCONTROL. How it is done:
as §1, §2, §3

The test system of another data set is MDA-MB-453. As to the kind of experiment: SRB cell viability after siRNA transfection. The class given is cell-based, human. As to conditions: 40 nM siRNA, day 5 post-transfection, normalized over siCONTROL. As to the method:
as §1, §2, §3

The test system of a further data set is MDA-MB-468. The data set is described as follows: SRB cell viability after siRNA transfection. In kind it is cell-based, human. The following applies: 40 nM siRNA, day 5 post-transfection, normalized over siCONTROL. How it is done: as §1, §2, §3
A further data set deals with SKBr-3. As to the kind of experiment: SRB cell viability after siRNA transfection. In kind it is cell-based, human. As to conditions: 40 nM siRNA, day 5 post-transfection, normalized over siCONTROL. How it is done: as §1, §2, §3
In another data set the test system is T47D. As to the kind of experiment: SRB cell viability after siRNA transfection. The class given is cell-based, human. As to conditions: 40 nM siRNA, day 5 post-transfection, normalized over siCONTROL. As to the method:
as §1, §2, §3

The next data set has as its system 184A1 (Normal). The data set is described as follows: Cell cycle profile by flow cytometry after siRNA transfection. The following applies: 40 nM siRNA, day 3 post-transfection; for <G1: siCONTROL (Neg. Control) 1.03; for G2/M: siCONTROL (Neg. Control) 10.35. The class given is cell-based, human. As to the method:
(§4) To assess the effects of TTK knockdown on the physiology of normal breast and breast cancer cell lines, luminal (MCF7) or basal-like (MDA-MB-435, MDA-MB-468) breast cancer cell lines, a lung cancer cell line (A549) and a normal breast cell line (184A1) each were transfected with 40 nM of TTK-targeting siRNA #2, siRNA #3, the pooled siRNA containing all four of the TTK-targeting siRNAs, or the siCONTROL siRNA. At day 3 post-transfection, the cell cycle profile of the transfected cells was analyzed by flow cytometry to determine the effects of TTK knockdown on cell cycle arrest and cell death. Depletion of TTK in cells transfected with TTK-targeting siRNAs caused significant cell cycle arrest and cell death.
For orientation: In flow cytometry, cells or beads pass a laser one at a time.

For the next data set, the system named is A549 (Lung). The data set is described as above. The class given is cell-based, human. As to conditions: 40 nM siRNA, day 3 post-transfection; for <G1: siCONTROL (Neg. Control) 0.84; for G2/M: siCONTROL (Neg. Control) 10.57. As to the method:
as §4

A further data set concerns MCF-7 (Luminal). The description is as above. In kind it is cell-based, human. The following applies: for apoptosis, indicated by increased G2/M and <G1 populations: MCF7 breast cancer cells, flow cytometry, vs siCONTROL; for <G1 / G2/M: MCF-7, 40 nM siRNA, day 3 post-transfection; for <G1: siCONTROL (Neg. Control) 2.11; for G2/M: siCONTROL (Neg. Control) 16.17. As to the method: as §4

Another data set deals with MDA-MB-435 (Basal). Described as above. The class given is cell-based, human. The following applies: 40 nM siRNA, day 3 post-transfection; for <G1: siCONTROL (Neg. Control) 0.85; for G2/M: siCONTROL (Neg. Control) 18.77. How it is done: as §4
Another data set relates to MDA-MB-468 (Basal). The data set is described as above. The class given is cell-based, human. The following applies: 40 nM siRNA, day 3 post-transfection; for <G1: siCONTROL (Neg. Control) 4.09; for G2/M: siCONTROL (Neg. Control) 20.59. As to the method:
as §4

For data set [1], the system named is T-47D breast cancer cells. As to the kind of experiment: Colony formation in soft agar after siRNA transfection. As to conditions: 40 nM siRNA, relative to siCONTROL, two independent experiments. In kind it is cell-based, human. How it is done: Cells were transfected with 40 nM individual siRNAs, 40 nM siRNA pool including four individual siRNAs at 10 nM each or 40 nM non-silencing control siCONTROL using Lipofectamine 2000 Transfection Reagent (Invitrogen Corporation), mixed with culture medium containing 0.7% agar in 6-well plates and cultured at 37° C. After 2 weeks, the top layer of the culture was stained with 0.2% p-iodonitrotetrazolium violet and colonies were counted using a Sorcerer Colony Counter (Optomax).
To determine the effects of siRNA-mediated knockdown of TTK gene expression on anchorage-independent cell growth in breast cancer cells, T-47D breast cancer cell line was transfected with either the siRNA#2 or siRNA#3 TTK-targeting siRNA, the siRNA POOL containing 4 TTK-targeting siRNAs or the siCONTROL non-targeting siRNA. Following transfection colony formation in soft agar was assessed.

Another data set concerns tumors. As to conditions: TNP-470 below maximum tolerated dose with cyclophophamide 170 mg/kg, every 6 days; cited from earlier work.

Turning to “siRNA #3: siRNA targeting human TTK: 5′-GCACGUGACUACUUUCAAA-3′ (SEQ ID NO: 5) (listed as RNA, chemistry not given here)”, the “% survival” value in the data set with BT474 turned out to be 0.83%; in the data set with CAMA-1, 0.52%; with HCC1419, 0.91%; in the data set with Hs578T, 0.53%; in the data set on MCF-7, 0.23%; with MDA-MB-231, 0.23%. Also, the “% survival” value is 0.63% in the data set on MDA-MB-330; 0.60% with MDA-MB-435; 0.18% in the data set with MDA-MB-453; 0.27% in the data set on MDA-MB-468; 0.49% in the data set on SKBr-3; 0.74% in the data set with T47D. Moreover, the “<G1” value is given as 3.92 in the data set with 184A1 (Normal); 11.38 in the data set on A549 (Lung); 5.61 in the data set with MCF-7 (Luminal); 2.66 with MDA-MB-435 (Basal); 11.12 in the data set with MDA-MB-468 (Basal). The G2/M was determined as 17.49 in the data set with 184A1 (Normal); 24.87 with A549 (Lung); 65.23 with MCF-7 (Luminal); 40.08 in the data set on MDA-MB-435 (Basal); 28.41 with MDA-MB-468 (Basal). In the data set with MCF-7 (Luminal), the “apoptosis, indicated by increased G2/M and <G1 populations” value is reported as “caused apoptosis of the cancer cells”. The “colonies formed in soft agar (number and size)” value was “reduction in the number of colonies” in data set [1]; “reduction in both colony size and number” in [1] (listed as siRNA#3).
`CO[C@@H]1[C@H](OC(=O)NC(=O)CCl)CC[C@]2(CO2)[C@H]1[C@@]1(C)O[C@@H]1CC=C(C)C` [TNP-470]: in the data set with tumors, the tumor response entry was “complete regression of the tumors”.
On to “siRNA #2: siRNA targeting human TTK: 5′-GGUAUUAACUGCCCAAGAA-3′ (SEQ ID NO: 4) (listed as RNA, chemistry not given here)”, for which the “% survival” value is given as 0.66% in the data set with BT474; 0.30% with CAMA-1; 0.75% in the data set with HCC1419; 1.25% in the data set on Hs578T; 0.27% with MCF-7; −0.09% in the data set with MDA-MB-231. Also, the “% survival” value in the data set with MDA-MB-330 was 0.38%; in the data set on MDA-MB-435, 0.25%; in the data set on MDA-MB-453, −0.04%; in the data set with MDA-MB-468 it was 0.00%; with SKBr-3 it was 0.34%; in the data set on T47D, 0.44%. Further, the “<G1” value was determined as 5.35 in the data set on 184A1 (Normal); 6.03 with A549 (Lung); 12.03 with MCF-7 (Luminal); 4.69 with MDA-MB-435 (Basal); 15.10 with MDA-MB-468 (Basal). The G2/M in the data set with 184A1 (Normal) is reported as 27.75; in the data set with A549 (Lung), 20.58; in the data set with MCF-7 (Luminal), 25.18; with MDA-MB-435 (Basal), 19.89; in the data set on MDA-MB-468 (Basal) it was 15.72. For the same molecule, the “apoptosis, indicated by increased G2/M and <G1 populations” value in the data set on MCF-7 (Luminal) is “caused apoptosis of the cancer cells”. Moreover, the “colonies formed in soft agar (number and size)” value was “reduction in the number of colonies” in data set [1]; “reduction in both colony size and number” in data set [1] (listed as siRNA#2).
